Drawing on BindingDB's records for doi:10.1002/(SICI)1098-2396(200002)35:2<79::AID-SYN1>3.0.CO;2-X (Institut De Recherches Servier, 2000), this text covers Ki for 1 compound.

Test [1] has as its target T1, 5-hydroxytryptamine receptor 1A (Homo sapiens, UniProt P08908).
T1 sequence (P08908 whole entry): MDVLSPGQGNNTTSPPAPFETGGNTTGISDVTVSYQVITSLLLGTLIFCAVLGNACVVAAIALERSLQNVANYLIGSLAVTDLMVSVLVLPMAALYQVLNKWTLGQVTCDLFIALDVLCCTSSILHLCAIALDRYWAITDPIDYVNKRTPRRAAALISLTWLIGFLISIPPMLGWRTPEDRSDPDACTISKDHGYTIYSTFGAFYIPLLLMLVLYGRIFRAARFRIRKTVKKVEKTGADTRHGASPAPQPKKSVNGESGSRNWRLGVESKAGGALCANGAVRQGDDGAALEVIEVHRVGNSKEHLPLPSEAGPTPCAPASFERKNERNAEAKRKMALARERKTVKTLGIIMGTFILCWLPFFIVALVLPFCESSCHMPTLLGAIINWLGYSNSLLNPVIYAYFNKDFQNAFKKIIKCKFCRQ

Test [2] addresses 5-hydroxytryptamine receptor 2A (Rattus norvegicus, UniProt P14842).
For test [3], the target named is T2, 5-hydroxytryptamine receptor 1A (Rattus norvegicus, UniProt P19327).
T2 sequence (P19327 whole entry): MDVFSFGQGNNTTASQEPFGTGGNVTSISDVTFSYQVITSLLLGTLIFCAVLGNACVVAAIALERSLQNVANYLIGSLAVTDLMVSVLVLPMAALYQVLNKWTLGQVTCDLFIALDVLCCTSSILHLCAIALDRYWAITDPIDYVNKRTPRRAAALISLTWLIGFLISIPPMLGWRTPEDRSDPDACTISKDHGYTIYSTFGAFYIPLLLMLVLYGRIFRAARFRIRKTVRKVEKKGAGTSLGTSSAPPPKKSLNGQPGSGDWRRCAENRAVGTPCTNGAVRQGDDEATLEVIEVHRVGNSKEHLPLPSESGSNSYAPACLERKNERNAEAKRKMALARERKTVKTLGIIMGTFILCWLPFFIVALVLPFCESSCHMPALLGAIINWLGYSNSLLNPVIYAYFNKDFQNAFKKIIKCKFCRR

The target of test [4] is D(2) dopamine receptor (Rattus norvegicus, UniProt P61169).
Chain of D(2) dopamine receptor (Rattus norvegicus, UniProt P61169) (P61169 whole entry): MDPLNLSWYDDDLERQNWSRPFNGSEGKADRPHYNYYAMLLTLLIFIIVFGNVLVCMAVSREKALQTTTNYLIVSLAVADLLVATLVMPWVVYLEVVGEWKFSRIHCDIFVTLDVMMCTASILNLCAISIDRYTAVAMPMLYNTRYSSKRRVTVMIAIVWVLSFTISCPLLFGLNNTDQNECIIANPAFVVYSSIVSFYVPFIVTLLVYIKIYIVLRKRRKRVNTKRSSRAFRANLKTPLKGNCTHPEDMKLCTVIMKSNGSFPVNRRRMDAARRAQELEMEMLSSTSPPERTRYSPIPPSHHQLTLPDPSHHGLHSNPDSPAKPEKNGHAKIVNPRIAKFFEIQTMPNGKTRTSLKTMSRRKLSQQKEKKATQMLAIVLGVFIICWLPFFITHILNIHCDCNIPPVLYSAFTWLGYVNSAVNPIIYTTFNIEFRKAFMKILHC
Test [5] has as its target D(2) dopamine receptor (Homo sapiens, UniProt P14416).
The target of test [6] is T3, Alpha-1B adrenergic receptor (Homo sapiens, UniProt P35368).
T3 sequence (P35368 whole entry): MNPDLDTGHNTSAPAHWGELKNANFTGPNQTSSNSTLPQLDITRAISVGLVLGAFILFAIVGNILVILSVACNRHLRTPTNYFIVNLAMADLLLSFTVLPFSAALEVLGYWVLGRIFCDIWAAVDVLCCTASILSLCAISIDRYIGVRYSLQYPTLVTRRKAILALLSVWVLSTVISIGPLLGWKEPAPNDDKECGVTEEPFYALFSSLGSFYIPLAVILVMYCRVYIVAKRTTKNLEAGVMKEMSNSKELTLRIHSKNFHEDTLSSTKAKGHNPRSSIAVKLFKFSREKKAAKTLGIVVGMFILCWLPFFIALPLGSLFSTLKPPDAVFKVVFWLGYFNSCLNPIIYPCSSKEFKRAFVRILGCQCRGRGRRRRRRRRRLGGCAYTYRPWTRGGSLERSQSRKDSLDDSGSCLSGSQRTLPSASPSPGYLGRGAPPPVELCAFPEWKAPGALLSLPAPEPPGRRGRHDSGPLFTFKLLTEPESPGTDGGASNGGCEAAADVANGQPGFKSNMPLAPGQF

Test [7] has as its target 5-hydroxytryptamine receptor 1B (Cavia porcellus, UniProt O08892).
Test [8] deals with T4, Alpha-2C adrenergic receptor (Rattus norvegicus, UniProt P22086).
T4 sequence (P22086 whole entry): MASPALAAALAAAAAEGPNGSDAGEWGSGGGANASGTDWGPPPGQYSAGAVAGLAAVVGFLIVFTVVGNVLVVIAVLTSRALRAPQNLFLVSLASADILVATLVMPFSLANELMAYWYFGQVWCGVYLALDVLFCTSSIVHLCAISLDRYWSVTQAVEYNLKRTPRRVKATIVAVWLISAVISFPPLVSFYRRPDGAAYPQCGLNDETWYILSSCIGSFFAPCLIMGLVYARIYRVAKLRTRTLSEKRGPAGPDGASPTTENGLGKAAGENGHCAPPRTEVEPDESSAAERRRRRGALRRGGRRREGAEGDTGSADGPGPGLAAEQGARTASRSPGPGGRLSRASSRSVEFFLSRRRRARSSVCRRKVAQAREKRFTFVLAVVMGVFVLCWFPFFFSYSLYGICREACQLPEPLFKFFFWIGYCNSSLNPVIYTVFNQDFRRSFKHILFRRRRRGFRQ

Test [9] concerns the target T5, 5-hydroxytryptamine receptor 2C (Homo sapiens, UniProt P28335).
T5 sequence (P28335 whole entry): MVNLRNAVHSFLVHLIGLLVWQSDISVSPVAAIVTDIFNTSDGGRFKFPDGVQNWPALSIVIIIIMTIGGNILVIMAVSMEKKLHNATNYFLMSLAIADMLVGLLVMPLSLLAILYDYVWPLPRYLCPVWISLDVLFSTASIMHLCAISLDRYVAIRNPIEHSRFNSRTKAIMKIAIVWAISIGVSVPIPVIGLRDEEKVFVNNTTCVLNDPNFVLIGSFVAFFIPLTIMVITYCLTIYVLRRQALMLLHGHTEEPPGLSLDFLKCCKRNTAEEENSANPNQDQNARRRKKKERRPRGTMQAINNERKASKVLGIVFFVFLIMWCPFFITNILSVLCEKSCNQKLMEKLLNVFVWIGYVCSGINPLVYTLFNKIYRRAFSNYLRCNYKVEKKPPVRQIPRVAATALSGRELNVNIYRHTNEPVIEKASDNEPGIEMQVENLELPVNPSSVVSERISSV

Usually pKi stands for the negative decadic logarithm of the Ki, by convention in mol/L. A high value points to a low Ki.

SMILES strings stand for the structures. pKi: −log10 of the molar value.

Chain of 5-hydroxytryptamine receptor 1B (O08892 whole entry): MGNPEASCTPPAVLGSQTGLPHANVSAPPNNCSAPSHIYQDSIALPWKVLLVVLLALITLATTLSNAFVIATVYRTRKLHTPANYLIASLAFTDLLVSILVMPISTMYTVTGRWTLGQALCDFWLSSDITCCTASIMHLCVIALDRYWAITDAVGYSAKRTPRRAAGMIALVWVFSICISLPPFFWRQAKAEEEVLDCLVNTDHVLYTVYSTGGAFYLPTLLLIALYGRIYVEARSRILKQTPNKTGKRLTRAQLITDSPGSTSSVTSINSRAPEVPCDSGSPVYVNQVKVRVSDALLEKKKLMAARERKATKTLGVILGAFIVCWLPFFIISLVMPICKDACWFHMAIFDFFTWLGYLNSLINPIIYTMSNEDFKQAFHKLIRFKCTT
Chain of D(2) dopamine receptor (Homo sapiens, UniProt P14416) (P14416 whole entry): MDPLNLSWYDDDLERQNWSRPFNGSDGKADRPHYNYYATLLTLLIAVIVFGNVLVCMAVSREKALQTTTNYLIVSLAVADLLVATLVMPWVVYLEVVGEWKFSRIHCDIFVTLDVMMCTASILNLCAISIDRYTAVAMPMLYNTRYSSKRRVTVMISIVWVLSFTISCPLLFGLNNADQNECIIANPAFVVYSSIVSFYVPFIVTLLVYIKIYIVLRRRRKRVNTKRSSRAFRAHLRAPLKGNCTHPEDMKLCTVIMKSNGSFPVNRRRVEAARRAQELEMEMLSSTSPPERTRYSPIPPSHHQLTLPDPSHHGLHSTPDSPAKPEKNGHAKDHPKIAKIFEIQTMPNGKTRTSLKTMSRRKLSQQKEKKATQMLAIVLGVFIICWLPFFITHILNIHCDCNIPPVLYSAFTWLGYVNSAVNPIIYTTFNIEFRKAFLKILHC
Chain of 5-hydroxytryptamine receptor 2A (P14842 whole entry): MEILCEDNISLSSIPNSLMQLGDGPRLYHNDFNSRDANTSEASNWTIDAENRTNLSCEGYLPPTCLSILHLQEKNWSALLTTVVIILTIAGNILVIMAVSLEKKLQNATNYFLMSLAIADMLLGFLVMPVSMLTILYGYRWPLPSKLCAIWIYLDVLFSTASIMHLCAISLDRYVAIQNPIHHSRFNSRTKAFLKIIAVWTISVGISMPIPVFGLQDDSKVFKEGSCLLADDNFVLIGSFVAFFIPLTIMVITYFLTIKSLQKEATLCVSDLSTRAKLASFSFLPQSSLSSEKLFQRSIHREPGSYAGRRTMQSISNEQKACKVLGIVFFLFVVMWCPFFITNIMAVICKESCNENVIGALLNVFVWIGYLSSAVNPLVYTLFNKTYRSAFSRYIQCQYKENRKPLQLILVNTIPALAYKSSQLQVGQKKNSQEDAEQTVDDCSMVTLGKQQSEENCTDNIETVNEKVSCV

For `Fc1cccc2c1OC1CNCC1O2` (centres undefined) [CAS_105182-45-4], the pKi in test [1] is 6.80; in test [2], 6.00; in test [3] it was 6.20; on D(2) dopamine receptor [4], 5.50; on D(2) dopamine receptor [5], 6.00; in [6] it was 6.00. Also, the negative logarithm of the Ki (pKi) in test [7] is 6.00; in [8], 9.30; in test [9], 6.00.
